A word on the IC50: it is the concentration that gives 50% inhibition. Low values mean inhibition by little substance, high ones a need for much substance.

Experimental findings from patent US10253018B2, “Apoptosis signal-regulating kinase 1 inhibitors and methods of use thereof” (ENANTA PHARMACEUTICALS, INC., priority 2017, dated 2019) are described below.

ASK1, sequence (Q99683 whole entry): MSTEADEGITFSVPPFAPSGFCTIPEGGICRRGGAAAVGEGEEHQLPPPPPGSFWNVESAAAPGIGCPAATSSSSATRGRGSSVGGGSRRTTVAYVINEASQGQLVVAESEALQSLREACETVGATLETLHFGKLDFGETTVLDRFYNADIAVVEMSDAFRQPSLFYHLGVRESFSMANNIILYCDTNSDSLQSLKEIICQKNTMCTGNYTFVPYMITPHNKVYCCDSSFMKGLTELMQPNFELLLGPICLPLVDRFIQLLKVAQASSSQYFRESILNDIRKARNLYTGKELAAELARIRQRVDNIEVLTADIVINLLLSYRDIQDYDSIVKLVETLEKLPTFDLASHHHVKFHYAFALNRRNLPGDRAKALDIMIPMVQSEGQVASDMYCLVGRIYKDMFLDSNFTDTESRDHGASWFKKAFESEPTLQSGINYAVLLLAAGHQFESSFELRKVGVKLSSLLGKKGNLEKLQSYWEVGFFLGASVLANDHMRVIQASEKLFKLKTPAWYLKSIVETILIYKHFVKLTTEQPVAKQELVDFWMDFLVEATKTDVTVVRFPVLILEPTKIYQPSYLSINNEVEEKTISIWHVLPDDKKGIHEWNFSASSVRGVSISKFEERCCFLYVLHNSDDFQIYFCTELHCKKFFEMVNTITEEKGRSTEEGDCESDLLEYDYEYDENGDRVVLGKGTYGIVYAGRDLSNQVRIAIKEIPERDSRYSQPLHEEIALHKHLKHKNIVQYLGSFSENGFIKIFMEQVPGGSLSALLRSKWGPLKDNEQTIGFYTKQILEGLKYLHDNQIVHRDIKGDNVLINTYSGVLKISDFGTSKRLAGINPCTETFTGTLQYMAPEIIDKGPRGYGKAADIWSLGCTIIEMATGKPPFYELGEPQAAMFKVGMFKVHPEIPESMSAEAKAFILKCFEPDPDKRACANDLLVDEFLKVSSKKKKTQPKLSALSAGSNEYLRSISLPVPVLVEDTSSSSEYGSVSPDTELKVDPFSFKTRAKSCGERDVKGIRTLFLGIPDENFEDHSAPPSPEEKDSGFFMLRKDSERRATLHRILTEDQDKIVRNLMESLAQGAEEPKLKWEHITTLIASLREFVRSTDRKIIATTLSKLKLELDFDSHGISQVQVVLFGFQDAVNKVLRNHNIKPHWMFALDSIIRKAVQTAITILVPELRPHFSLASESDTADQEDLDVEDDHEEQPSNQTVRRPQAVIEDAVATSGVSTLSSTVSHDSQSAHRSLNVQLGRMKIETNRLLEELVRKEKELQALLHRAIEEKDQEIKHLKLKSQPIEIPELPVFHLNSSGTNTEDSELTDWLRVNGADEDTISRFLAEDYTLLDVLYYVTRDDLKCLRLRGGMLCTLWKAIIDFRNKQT

The target in this test is ASK1 (Homo sapiens (Human), UniProt Q99683). Nature of the test: HTRF KinEASE Assay (TR-FRET), inhibition of ASK1. The format is biochemical. Conditions: 5 nM ASK1 kinase, 1 uM STK3 peptide substrate, 100 uM ATP, 3 hours. From the text:
Assays HTRF® KinEASE™ Assay ASK1 was purchased from Thermofisher (Catalogue # PV4011), ATP was purchased from Sigma (Catalogue # A7699), HTRF® KinEASE™ Assay System was obtained from Cisbio (Bedford, Mass.). ½ Area plate was purchased from Perkin Elmer (Catalogue # #6005560). HTRF® KinEASE™-STK is a generic method for measuring serine/threonine kinase activities using a time-resolved fluorescence resonance energy transfer (TR-FRET) immunoassay. […] The STK3-antibody labeled with Eu^3+-Cryptate and 125 nM streptavidin-XL665 are mixed in a single addition with stop reagents provided by the Cisbio kit used to stop the kinase reaction. Fluorescence is detected using an Envision Multilabeled 2014 reader from PerkinElmer. The Fluorescence is measured at 615 nm (Cryptate) and 665 nm (XL665) and a ratio of 665 nm/615 nm is calculated for each well. The resulting TR-FRET is proportional to the phosphorylation level. Staurosporine was used as the positive control. IC50 was determined by XLfit 5.3.
For orientation: TR-FRET usually uses a lanthanide donor and a delayed reading to cut background.
As to `CC(C)n1cnnc1-c1cccc(NC(=O)c2ccc3ccc(NC4CCCCC4)nc3c2)n1` [Example 28], the half-inhibitory concentration (IC50) is > 1 µM.

For `CC(C)n1cnnc1-c1cccc(NC(=O)c2cc3cc(-n4cnc(C5CC5)c4)ccc3cn2)n1` [Example 22], the IC50 is 0.001 to 0.01 µM.

In the case of `CC(C)Oc1nc2cc(F)c(C(=O)Nc3cccc(-c4nnnn4C(C)C)n3)cc2nc1OC(C)C` [Example 10], the IC50 was > 1 µM.

As to `CC(C)n1nnnc1-c1cccc(NC(=O)c2cc3ccccc3cc2F)n1` [Example 41], the IC50 is > 1 µM.

Consider `CC(C)n1cnnc1-c1cccc(NC(=O)c2ccc3ccc(N4CCCCC4)nc3c2)n1` [Example 26], for which the IC50 lay within 0.01 to 0.1 µM.

Turning to `CC(C)n1cnnc1-c1cccc(NC(=O)c2ccc3ccc(N4CCN(C(C)(C)C)CC4)nc3c2)n1` [Example 27], the IC50 was > 1 µM.

For `CCN(Cc1ccccc1)c1ccc2ccc(C(=O)Nc3cccc(-c4nncn4C(C)C)n3)cc2n1` [Example 31], the half-maximal inhibitory concentration (IC50) is > 1 µM.

In the case of `COCCNc1ccc2ccc(C(=O)Nc3cccc(-c4nncn4C(C)C)n3)cc2n1` [Example 33], the IC50 is 0.01 to 0.1 µM.

Turning to `CC(C)n1cnnc1-c1cccc(NC(=O)c2ccc3cc(Br)cnc3c2)n1` [Example 36], the IC50 is 0.1 to 1 µM.

In the case of `COc1nc2ccc(C(=O)Nc3cccc(-c4nncn4C(C)C)n3)cc2nc1N1CCOCC1` [Example 2], the half-maximal inhibitory concentration (IC50) lay in the range of 0.1 to 1 µM.

`CC(C)Oc1nc2ccc(C(=O)Nc3cccc(-c4nncn4C(C)C)n3)cc2nc1N1CCOCC1` [Example 7] registered an IC50 of 0.1 to 1 µM.

With `CC(C)n1cnnc1-c1cccc(NC(=O)c2cc3ccccc3cn2)n1` [Example 18], the IC50 lay within 0.001 to 0.01 µM.

On to `CC(C)n1nnnc1-c1cccc(NC(=O)c2cc3cc(Br)ccc3cn2)n1` [Example 20], for which the IC50 is > 1 µM.

In turn, `CC(C)n1cnnc1-c1cccc(NC(=O)c2ccc3ccc(N4CCOCC4)nc3c2)n1` [Example 24] yielded an IC50 of 0.1 to 1 µM.

In turn, `COc1nc2ccc(C(=O)Nc3cccc(-c4nncn4C(C)C)n3)cc2nc1NC(C)C` [Example 8] returned an IC50 of 0.1 to 1 µM.

The compound `CC(C)Oc1nc2cc(F)c(C(=O)Nc3cccc(-c4nncn4C(C)C)n3)cc2nc1OC(C)C` [Example 11] showed a half-maximal inhibitory concentration (IC50) of 0.1 to 1 µM.

`CC(C)Nc1nc2cc(C(=O)Nc3cccc(-c4nncn4C(C)C)n3)ccc2nc1OC(C)C` [Example 4] returned an IC50 of 0.01 to 0.1 µM.

Turning to `CC(C)n1cnnc1-c1cccc(NC(=O)c2ccc3ccc(Cl)nc3c2)n1` [Example 34], the IC50 was in the range of 0.1 to 1 µM.

With `COc1nc2ccc(C(=O)Nc3cccc(-c4nncn4C(C)C)n3)cc2nc1N1CCCCC1` [Example 5], the IC50 was in the range of 0.1 to 1 µM.

Consider `CCn1nccc1-c1ccc2cnc(C(=O)Nc3cccc(-c4nncn4C(C)C)n3)cc2c1` [Example 23], for which the IC50 lay within 0.01 to 0.1 µM.

For the compound `CC(C)Nc1nc2cc(C(=O)Nc3cccc(-c4nnnn4C(C)C)n3)c(F)cc2nc1OC(C)C` [Example 14], the IC50 is > 1 µM.

As for `CC(C)n1cnnc1-c1cccc(NC(=O)c2ccc3cc(-c4ccc(C(C)(C)C)cc4)cnc3c2)n1` [Example 37], the IC50 is > 1 µM.

The compound `CC(C)n1cnnc1-c1cccc(NC(=O)c2ccc3cc(N4CCOCC4)cnc3c2)n1` [Example 38] returned an IC50 of 0.01 to 0.1 µM.

`CC(C)CN(C)c1nc2cc(C(=O)Nc3cccc(-c4nncn4C(C)C)n3)c(F)cc2nc1OC(C)C` [Example 13] registered an IC50 of 0.1 to 1 µM.

`CC(C)Nc1nc2cc(C(=O)Nc3cccc(-c4nncn4C(C)C)n3)c(F)cc2nc1OC(C)C` [Example 15] had an IC50 of 0.01 to 0.1 µM.

In turn, `COc1nc2cc(F)c(C(=O)Nc3cccc(-c4nncn4C(C)C)n3)cc2nc1N1CCCCC1` [Example 3] had an IC50 of 0.01 to 0.1 µM.

For the compound `CC(C)n1cnnc1-c1cccc(NC(=O)c2ccc3cccnc3c2)n1` [Example 35], the IC50 is > 1 µM.

On to `CC(C)n1cnnc1-c1cccc(NC(=O)c2ccc3ccc(N(C)C)nc3c2)n1` [Example 25], for which the IC50 was > 1 µM.

Turning to `CC(C)n1cnnc1-c1cccc(NC(=O)c2cc3cc(Br)ccc3cn2)n1` [Example 19, 6-bromo-N-(6-(4-isopropyl-4H-1,2,4-triazol-3-yl)pyridin-2-yl)isoquinoline-3-carboxamide], the concentration for half-maximal inhibition (IC50) is 0.001 to 0.01 µM.

As to `CC(C)Oc1nc2cc(F)c(C(=O)Nc3cccc(-c4nnnn4C(C)C)n3)cc2nc1N(C)C(C)C` [Example 9], the 50% inhibitory concentration (IC50) was > 1 µM.

Regarding `CC(C)n1cnnc1-c1cccc(NC(=O)c2cc3cc(N4CCCCC4)ccc3cn2)n1` [Example 21], the IC50 was in the range of 0.001 to 0.01 µM.

Regarding `CC(C)Nc1nc2cc(C(=O)Nc3cccc(-c4nnnn4[C@@H](C)CO)n3)c(F)cc2nc1OC(C)C` [Example 17], the IC50 was > 1 µM.

In the case of `CC(C)n1cnnc1-c1cccc(NC(=O)c2ccc3ccccc3c2)n1` [Example 39], the IC50 lay in the range of 0.1 to 1 µM.

On to `CC(C)CN(C)c1nc2cc(C(=O)Nc3cccc(-c4nnnn4C(C)C)n3)c(F)cc2nc1OC(C)C` [Example 12], for which the IC50 is > 1 µM.

As for `CC(C)n1cnnc1-c1cccc(NC(=O)c2ccc3ccc(N4CC5CCC(C4)O5)nc3c2)n1` [Example 30], the IC50 lay in the range of 0.1 to 1 µM.

For the compound `CC(C)n1cnnc1-c1cccc(NC(=O)c2ccc3ccc(N4CC5(COC5)C4)nc3c2)n1` [Example 29], the IC50 was > 1 µM.

In the case of `CC(C)n1cnnc1-c1cccc(NC(=O)c2cc3ccccc3cc2F)n1` [Example 40], the 50% inhibitory concentration (IC50) was in the range of 0.1 to 1 µM.

`CC(C)n1cnnc1-c1cccc(NC(=O)c2ccc3nccnc3c2)n1` [Example 1] yielded an IC50 of 0.1 to 1 µM.

Compound `COc1nc2cc(F)c(C(=O)Nc3cccc(-c4nnnn4C(C)C)n3)cc2nc1N1CCCCC1` [Example 16] displayed an IC50 of 0.1 to 1 µM.

For `CC(C)Oc1nc2ccc(C(=O)Nc3cccc(-c4nncn4C(C)C)n3)cc2nc1N1CCCCC1` [Example 6], the IC50 is > 1 µM.
